Consider 25 molecules from patent US7541368B2, “Pyrazoles as inhibitors of tumor necrosis factor” (Aventis Pharmaceuticals Inc., priority 2003, dated 2009).

The assay deals with TNF-alpha release in THP-1 cells. The assay can be described thus: LPS-induced TNF-alpha release in THP-1 cells. It is filed as cell-based. The settings on record: Homo sapiens, THP-1, LPS-stimulated THP-1 cells; read-out: 50% inhibition in the LPS-induced TNF-alpha release in THP-1 cells assay at concentrations within the range. Here is the method:
The effects of compounds on TNF-alpha production by lipopolysaccharide (LPS)-stimulated […] monocytes were examined as follows.
Undifferentiated THP-1 cells were maintained in RPMI 1640 with Glutamax I containing β-mercaptoethananol (50 μM) and foetal calf serum (FCS-10%) at densities of about 1×10^6 cells per ml. For incubations without and with test reagents, cells were seeded at the indicated densities under serum-deprived (1% FCS) conditions. Compounds were dissolved in dimethylsulfoxide (DMSO-100%) and incubated with the cells to give a fmal DMSO concentration of 0.3%. Control and untreated cell samples were incubated with DMSO (0.3%).
THP-1 cells (1×10 ^6 cells/ml, total volume 150 μl) in culture medium were incubated for 1 hour (5% CO2, 37° C.) with fresh medium containing compounds or vehicle (0.1-0.3% dimethylsulfoxide). LPS (20 μg/ml) was then added to the cells and the incubation continued for a fuirther 18 hours. Cell supernatants were removed into 96 well plates for storage at −20° C.
TNF-alpha concentrations in cell supernatants were quantified by sandwich ELISA. Briefly, ELISA plates were coated overnight with 2 μg/ml of mouse anti-human TNF-alpha antibody in bicarbonate buffer (pH 9.9). After washing the wells with wash buffer (0.05% (v/v) Tween in PBS)and blocking unoccupied sites (1% BSA in wash buffer), monocyte supernatant samples or human recombinant TNF-alpha standards were added into the corresponding wells of the ELISA plate at 1:10 dilution. Biotinylated rabbit polyclonal anti-human TNF-alpha antibody (3 μg/ml) was used as the second antibody and streptavidin-horseradish peroxidase was used as the detection antibody. The peroxidase substrate is 3,3′,5,5′-tetramethylbenzidine (TMB) in the presence of hydrogen peroxide.
TNFα concentrations in supernatants from control and LPS-stimulated monocyte incubations were calculated by interpolation from a standard (log/log) curve (0.125-16 ng/ml) fitted by Excel Fit using the Activity Base software. Compounds were tested within the concentration range of 1×10^−9M to 1×10^−6M.
On to `Cc1ccc(-n2nc(C(C)(C)C)cc2NC(=O)Nc2cccc(CC3CCN(C(=O)c4occc4C)CC3)c2)cc1` [Compound A95, 1-(5-tert-Butyl-2-p-tolyl-2H-pyrazol-3-yl)-3-{3-[1-(3-methyl-furan-2-carbonyl)-piperidin-4-ylmethyl]-phenyl}-urea], for which the IC50 is 10 to 500 nM. Turning to `Cc1ccc(-n2nc(C(C)(C)C)cc2NC(=O)Nc2cccc(CC3CCN(C(=O)c4ccsc4)CC3)c2)cc1` [Compound A99, 1-(5-tert-Butyl-2-p-tolyl-2H-pyrazol-3-yl)-3-{3-[1-(thiophene-3-carbonyl)-piperidin-4-ylmethyl]-phenyl}-urea], the IC50 is 10 to 500 nM.

Turning to `Cc1ccc(-n2nc(C(C)(C)C)cc2NC(=O)Nc2cccc(CC3CCN(C(=O)C4=Cc5sccc5CC4)CC3)c2)cc1` [Compound A102, 1-(5-tert-Butyl-2-p-tolyl-2H-pyrazol-3-yl)-3-{3-[1-(4,5-dihydro-benzo[b]thiophene-6-carbonyl)-piperidin-4-ylmethyl]-phenyl}-urea], the IC50 fell in the range of 10 to 500 nM. Take `Cc1ccc(-n2nc(C(C)(C)C)cc2NC(=O)Nc2cccc(CC3CCN(C(=O)c4ccc(-c5cnco5)cc4)CC3)c2)cc1` [Compound A106, 1-(5-tert-Butyl-2-p-tolyl-2H-pyrazol-3-yl)-3-{3-[1-(4-oxazol-5-yl-benzoyl)-piperidin-4-ylmethyl]-phenyl}-urea]: the IC50 lay in the range of 10 to 500 nM.

Regarding `Cc1ccc(-n2nc(C(C)(C)C)cc2NC(=O)Nc2cccc(CC3CCN(C(=O)c4ccc(OC(F)F)cc4)CC3)c2)cc1` [Compound A111, 1-(5-tert-Butyl-2-p-tolyl-2H-pyrazol-3-yl)-3-{3-[1-(4-difluoromethoxy-benzoyl)-piperidin-4-ylmethyl]-phenyl}-urea], the IC50 fell in the range of 10 to 500 nM. `Cc1ccc(-n2nc(C(C)(C)C)cc2NC(=O)Nc2cccc(CC3CCN(C(=O)c4ccc(N)c(OC(F)(F)F)c4)CC3)c2)cc1` [Compound A114, 1-{3-[1-(4-Amino-3-trifluoromethoxy-benzoyl)-piperidin-4-ylmethyl]-phenyl}-3-(5-tert-butyl-2-p-tolyl-2H-pyrazol-3-yl)-urea]: the IC50 was 10 to 500 nM. Then `Cc1ccc(-n2nc(C(C)(C)C)cc2NC(=O)Nc2cccc(CC3CCN(C(=O)c4ccc(CO)cc4)CC3)c2)cc1` [Compound A118, 1-(5-tert-Butyl-2-p-tolyl-2H-pyrazol-3-yl)-3-{3-[1-(4-hydroxymethyl-benzoyl)-piperidin-4-ylmethyl]-phenyl}-urea], with 10 to 500 nM; and `COc1ccc(OCC(=O)N2CCC(Cc3cccc(NC(=O)Nc4cc(C(C)(C)C)nn4-c4ccc(C)cc4)c3)CC2)cc1` [Compound A121, 1-(5-tert-Butyl-2-p-tolyl-2H-pyrazol-3-yl)-3-(3-{1-[2-(4-methoxy-phenoxy)-acetyl]-piperidin-4-ylmethyl}-phenyl)-urea], with 10 to 500 nM.

For the molecule `COc1ccc(CC(=O)N2CCC(Cc3cccc(NC(=O)Nc4cc(C(C)(C)C)nn4-c4ccc(C)cc4)c3)CC2)cc1` [Compound A122, 1-(5-tert-Butyl-2-p-tolyl-2H-pyrazol-3-yl)-3-(3-{1-[2-(4-methoxy-phenyl)-acetyl]-piperidin-4-ylmethyl}-phenyl)-urea], the IC50 lay in the range of 10 to 500 nM.

As to `Cc1ccc(-n2nc(C(C)(C)C)cc2NC(=O)Nc2cccc(CC3CCN(C(=O)c4cnccc4C(F)(F)F)CC3)c2)cc1` [Compound A126, 1-(5-tert-Butyl-2-p-tolyl-2H-pyrazol-3-yl)-3-{3-[1-(4-trifluoromethyl-pyridine-3-carbonyl)-piperidin-4-ylmethyl]-phenyl}-urea], the IC50 was 10 to 500 nM. In the case of `Cc1ccc(-n2nc(C(C)(C)C)cc2NC(=O)Nc2cccc(CC3CCN(C(=O)c4ccc(Cl)s4)CC3)c2)cc1` [Compound A131, 1-(5-tert-Butyl-2-p-tolyl-2H-pyrazol-3-yl)-3-{3-[1-(5-chloro-thiophene-2-carbonyl)-piperidin-4-ylmethyl]-phenyl}-urea], the IC50 fell in the range of 10 to 500 nM. Then `COc1ccc(OCC(F)(F)F)c(C(=O)N2CCC(Cc3cccc(NC(=O)Nc4cc(C(C)(C)C)nn4-c4ccc(C)cc4)c3)CC2)c1` [Compound A132, 1-(5-tert-Butyl-2-p-tolyl-2H-pyrazol-3-yl)-3-(3-{1-[5-methoxy-2-(2,2,2-trifluoro-ethoxy)-benzoyl]-piperidin-4-ylmethyl}-phenyl)-urea], with 10 to 500 nM; and `Cc1ccc(-n2nc(C(C)(C)C)cc2NC(=O)Nc2cccc(CC3CCN(C(=O)c4cnc(C)cn4)CC3)c2)cc1` [Compound A140, 1-(5-tert-Butyl-2-p-tolyl-2H-pyrazol-3-yl)-3-{3-[1-(5-methyl-pyrazine-2-carbonyl)-piperidin-4-ylmethyl]-phenyl}-urea], with 10 to 500 nM; and `Cc1ccc(-n2nc(C(C)(C)C)cc2NC(=O)Nc2cccc(CC3CCN(C(=O)c4ccc(N)nc4)CC3)c2)cc1` [Compound A144, 1-{3-[1-(6-Amino-pyridine-3-carbonyl)-piperidin-4-ylmethyl]-phenyl}-3-(5-tert-butyl-2-p-tolyl-2H-pyrazol-3-yl)-urea], with 10 to 500 nM. The same measure for `Cc1ccc(-n2nc(C(C)(C)C)cc2NC(=O)Nc2cccc(CC3CCN(C(=O)c4cccc(C)n4)CC3)c2)cc1` [Compound A146, 1-(5-tert-Butyl-2-p-tolyl-2H-pyrazol-3-yl)-3-{3-[1-(6-methyl-pyridine-2-carbonyl)-piperidin-4-ylmethyl]-phenyl}-urea]: 10 to 500 nM; for `CC(=O)OCc1ccc(C(=O)N2CCC(Cc3cccc(NC(=O)Nc4cc(C(C)(C)C)nn4-c4ccc(C)cc4)c3)CC2)cc1` [Compound A148, Acetic acid 4-(4-{3-[3-(5-tert-butyl-2-p-tolyl-2H-pyrazol-3-yl)-ureido]-benzyl}-piperidine-1-carbonyl)-benzyl ester]: 10 to 500 nM. Regarding `Cc1ccc(-n2nc(C(C)(C)C)cc2NC(=O)Nc2cccc(CC3CCN(C(=O)c4ccc5ncsc5c4)CC3)c2)cc1` [Compound A150, 1-{3-[1-(Benzothiazole-6-carbonyl)-piperidin-4-ylmethyl]-phenyl}-3-(5-tert-butyl-2-p-tolyl-2H-pyrazol-3-yl)-urea], the IC50 lay within 10 to 500 nM. `Cc1ccc(-n2nc(C(C)(C)C)cc2NC(=O)Nc2cccc(CC3CCN(C(=O)c4coc5c4C(=O)CCC5)CC3)c2)cc1` [Compound A154, 1-(5-tert-Butyl-2-p-tolyl-2H-pyrazol-3-yl)-3-{3-[1-(4-oxo-4,5,6,7-tetrahydro-benzofuran-3-carbonyl)-piperidin-4-ylmethyl]-phenyl}-urea]: the IC50 lay within 10 to 500 nM. `Cc1ccc(-n2nc(C(C)(C)C)cc2NC(=O)Nc2cccc(CC3CCN(C(=O)c4n[nH]c5ccccc45)CC3)c2)cc1` [Compound A167, 1-(5-tert-Butyl-2-p-tolyl-2H-pyrazol-3-yl)-3-{3-[1-(1H-indazole-3-carbonyl)-piperidin-4-ylmethyl]-phenyl}-urea]: the IC50 fell in the range of 10 to 500 nM. Then `Cc1ccc(-n2nc(C(C)(C)C)cc2NC(=O)Nc2cccc(CC3CCN(C(=O)Cc4c[nH]c5ccccc45)CC3)c2)cc1` [Compound A168, 1-(5-tert-Butyl-2-p-tolyl-2H-pyrazol-3-yl)-3-{3-[1-(2-1H-indol-3-yl-acetyl)-piperidin-4-ylmethyl]-phenyl}-urea], with 10 to 500 nM.

Turning to `Cc1ccc(-n2nc(C(C)(C)C)cc2NC(=O)Nc2cccc(CC3CCN(C(=O)Cc4ccccc4C)CC3)c2)cc1` [Compound A182, 1-(5-tert-Butyl-2-p-tolyl-2H-pyrazol-3-yl)-3-{3-[1-(2-o-tolyl-acetyl)-piperidin-4-ylmethyl]-phenyl}-urea], the IC50 was in the range of 10 to 500 nM.

As to `Cc1ccc(-n2nc(C(C)(C)C)cc2NC(=O)Nc2cccc(CC3CCN(C(=O)c4ccc5ccccc5n4)CC3)c2)cc1` [Compound A184, 1-(5-tert-Butyl-2-p-tolyl-2H-pyrazol-3-yl)-3-{3-[1-(quinoline-2-carbonyl)-piperidin-4-ylmethyl]-phenyl}-urea], the IC50 lay within 10 to 500 nM.

As to `Cc1ccc(-n2nc(C(C)(C)C)cc2NC(=O)Nc2cccc(CC3CCN(C(=O)c4ccnc5ccccc45)CC3)c2)cc1` [Compound A186, 1-(5-tert-Butyl-2-p-tolyl-2H-pyrazol-3-yl)-3-{3-[1-(quinoline-4-carbonyl)-piperidin-4-ylmethyl]-phenyl}-urea], the IC50 lay within 10 to 500 nM. For the molecule `Cc1ccc(-n2nc(C(C)(C)C)cc2NC(=O)Nc2cccc(CC3CCN(C(=O)Cc4cccs4)CC3)c2)cc1` [Compound A189, 1-(5-tert-Butyl-2-p-tolyl-2H-pyrazol-3-yl)-3-{3-[1-(2-thiophen-2-yl-acetyl)-piperidin-4-ylmethyl]-phenyl}-urea], the IC50 was 10 to 500 nM. Then `Cc1ccc(-n2nc(C(C)(C)C)cc2NC(=O)Nc2cccc(CC3CCN(C(=O)Cc4ccsc4)CC3)c2)cc1` [Compound A190, 1-(5-tert-Butyl-2-p-tolyl-2H-pyrazol-3-yl)-3-{3-[1-(2-thiophen-3-yl-acetyl)-piperidin-4-ylmethyl]-phenyl}-urea], with 10 to 500 nM.
